# According to patent publication EP1223171A1, “Antimicrobial 5-substituted-3-isothiazolone compounds and methods of use” (Rohm and Haas, priority 2001, dated 2002):
# Experiments:
# Assay in all cases: high resolution minimum inhibitory concentration (HRMIC) test
# Type in all cases: cell-based
# [1] = tested on: Staphylococcus aureus 6538
# Method: (§1) Biological Activity: certain compounds of the present invention were tested for activity against three microorganisms, Escherichia coli 8739 (Gram-negative bacterium) and Staphylococcus aureus 6538 (Gram-positive bacterium) and Aspergillus niger 16404.
# (§2) The lowest concentration of test compound required to inhibit Staphylococcus aureus 6538, Escherichia coli 8739 and Aspergillus niger 16404 was determined by a high resolution minimum inhibitory concentration (HRMIC) test. Varying amounts of the test compounds were added to minimal salts glucose medium (see T. Maniatis, E.F. Fritsch and J. Sambrook, Molecular Cloning, p 68 (1982)) supplemented with 0.1% yeast extract (M9GY) in a 96-well microtiter plate. Ten-fold serial dilutions were performed on a Biomek™ 2000 Workstation to obtain a range of closely spaced concentrations of test compound as shown in Table 1 (based on dilutions of a 10,000 ppm active ingredient stock solution of the test compound). The plates were inoculated with cell suspension of inoculum and adjusted to provide about 10^6 CFU (colony forming units)/ml in each well. The microtiter plates were incubated at 30°C for 24 hours and then checked (optical density at 650 nm using a microplate reader) for the presence or absence of microbial growth in each well. […] Data reported (ppm active ingredient) are the average of multiple determinations (see Table 2).
# Aspergillus niger 16404 = conditions: ppm active ingredient, M9GY medium, about 10^6 CFU/ml, 30°C for 24 hours, average of multiple determinations
# Method: as §1, §2
# Escherichia coli 8739 = conditions: for better control versus Gram-negative (E. coli) bacteria than compound 6: ratio of MIC relative to compound 6 (MIC >1000 ppm)
# Method: as §1, §2
"MIC ([1]; Staphylococcus aureus, 6538, ppm active ingredient, M9GY medium, about 10^6 CFU/ml, 30°C for 24 hours, average of multiple determinations, read-out: MIC (ppm) S. aur) [µg/mL]",MIC (Aspergillus niger 16404) [µg/mL],"MIC (Escherichia coli 8739; Escherichia coli, 8739, ppm active ingredient, M9GY medium, about 10^6 CFU/ml, 30°C for 24 hours, average of multiple determinations, read-out: MIC (ppm) E. coli) [µg/mL]",Compound,better control versus Gram-positive (S. aur) bacteria than compound 6 ([1]; ratio of MIC relative to compound 6) [fold],better control versus Gram-negative (E. coli) bacteria than compound 6 (Escherichia coli 8739)
1,60,6,"Cn1sc(Sc2cccc[n+]2[O-])cc1=O [Compound 3, [2-methyl-3-isothiazolon-5-yl]-(1-oxypyridin-2-yl)sulfide]",5,≥ 160 fold
,,,"CCCCCCCCn1sc(Sc2cccc[n+]2[O-])c(Cl)c1=O [Compound 5, [4-chloro-2-n-octyl-3-isothiazolon-5-yl]-(1-oxypyridin-2-yl)sulfide]",,at least 30 fold
